We go through 5 compounds from patent publication US8067424B2, “Selective inhibitors for cyclin-dependent kinases” (Emory University, priority 2007, dated 2011).

SMILES strings stand for the structures. Where two headings read alike, the source gives them in different places.

What all share (format): biochemical
The target of one experiment is T1, PKD1 (Homo sapiens, UniProt Q15139).
T1 sequence (Q15139 1-912): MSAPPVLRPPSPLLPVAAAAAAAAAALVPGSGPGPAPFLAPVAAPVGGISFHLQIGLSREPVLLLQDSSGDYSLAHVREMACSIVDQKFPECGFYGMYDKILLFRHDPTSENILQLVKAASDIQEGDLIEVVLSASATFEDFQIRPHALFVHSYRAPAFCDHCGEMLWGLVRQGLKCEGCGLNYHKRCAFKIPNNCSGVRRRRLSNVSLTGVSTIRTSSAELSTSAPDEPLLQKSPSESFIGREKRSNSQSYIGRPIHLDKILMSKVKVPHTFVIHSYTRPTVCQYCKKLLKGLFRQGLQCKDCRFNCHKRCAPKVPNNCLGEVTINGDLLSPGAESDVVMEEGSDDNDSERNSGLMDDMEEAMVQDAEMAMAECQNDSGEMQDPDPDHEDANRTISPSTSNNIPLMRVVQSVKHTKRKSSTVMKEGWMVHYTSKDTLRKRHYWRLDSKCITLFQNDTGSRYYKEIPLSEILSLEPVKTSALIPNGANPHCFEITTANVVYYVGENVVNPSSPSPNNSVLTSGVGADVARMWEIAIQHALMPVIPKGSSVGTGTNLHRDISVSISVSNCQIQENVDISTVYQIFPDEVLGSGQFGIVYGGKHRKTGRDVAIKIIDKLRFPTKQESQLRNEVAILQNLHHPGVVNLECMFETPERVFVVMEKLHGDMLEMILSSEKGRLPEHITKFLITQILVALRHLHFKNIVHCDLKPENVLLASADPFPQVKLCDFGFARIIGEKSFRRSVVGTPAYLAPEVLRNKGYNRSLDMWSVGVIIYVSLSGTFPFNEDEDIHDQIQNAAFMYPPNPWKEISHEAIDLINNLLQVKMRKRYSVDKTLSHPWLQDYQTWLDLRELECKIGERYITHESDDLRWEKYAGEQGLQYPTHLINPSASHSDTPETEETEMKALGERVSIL
Kind of experiment: Kinase screen: PKD1 assay. The protocol: (§1) Generally, the same procedure was used for all assays. Since the total assay volume was 25.5 microliters, 0.5 microliters of inhibitors at 51× assay concentration were added to the plates before any other addition.
(§2) The basic procedure was to add 0.5 microliters inhibitor/control in DMSO to plate. Fifteen microliters of enzyme/substrate/buffer mix were added and incubated for 5 min. Ten microliters MgATP at the relevant concentration were added and incubated for 30 min. The assay was stopped by adding 5 microliters of 3% orthophosphoric acid. The assay was transferred to a p81 filter plate and read in a scintillation counter of 30 sec/well. Note that this assay procedure was not followed for MKK1, which instead involved a two-step assay, and PKC alpha, which required the addition of lipid vesicles.
PKD1 assay: PKD1 (5-20 mU diluted in 50 mM Tris pH 7.5, 0.1 mM EGTA, 0.1% b-mercaptoethanol, 1 mg/ml BSA) was assayed substrate peptide ([…]) (SEQ ID NO: 3) in a final volume of 25.5 μl containing 50 mM Tris pH 7.5, 0.05% b-mercaptoethanol, 30 μM substrate peptide, 10 mM magnesium acetate and 0.05 mM [33P-g-ATP] (50-1000 cpm/pmole) and incubated for 30 min at room temperature. Assays were stopped by addition of 5 μl of 0.5 M (3%) orthophosphoric acid and then harvested onto P81 Unifilter plates with a wash buffer of 50 mM orthophosphoric acid.

The next experiment has as its system AMPK. Kind of experiment: Kinase screen: AMPK assay. The settings on record: for mean activity remaining (as a percentage of the original activity), AMPK: 10 micromolar compound. The protocol: as §1, §2
AMPK assay: AMPK (5-20 mU diluted in 50 mM Hepes pH 7.5, 1 mM DTT, 0.02% Brij35) was assayed against SAMS substrate peptide ([…]) (SEQ ID NO: 11) in a final volume of 25.5 μl containing 50 mM Hepes pH 7.5, 1 mM DTT, 0.02% Brij35, 0.4 mM SAMS peptide, 0.196 mM AMP, 10 mM magnesium acetate and 0.05 mM [33P-g-ATP] (50-1000 cpm/pmole) and incubated for 30 min at room temperature. Assays were stopped by addition of 5 μl of 0.5 M (3%) orthophosphoric acid and then harvested onto P81 Unifilter plates with a wash buffer of 50 mM orthophosphoric acid.

Another experiment has as its system PHK. Kind of experiment: Kinase screen: PBK assay (phosphorylase b peptide). To be noted: for mean activity remaining (as a percentage of the original activity), PHK: 10 micromolar compound. The protocol:
as §1, §2
PBK assay: PBK (5-20 mU diluted in 50 mM Na-b-glycerophosphate pH 7.0, 0.1% b-mercaptoethanol) was assayed against phosphorylase b peptide ([…]) (SEQ ID NO: 14) in a final volume of 25.5 μl containing 50 mM Tris pH 8.6, 50 mM Na-b-glycerophosphate, 0.04 mM CaCl2, phosphorylase b peptide (0.196 mM), 10 mM magnesium acetate, 0.02 mM [33P-g-ATP] (500-1000 cpm/pmole) then incubated for 15 min at room temperature. Assays were stopped by addition of 5 μl of 0.5 M (3%) orthophosphoric acid and then harvested onto P81 Unifilter plates with a wash buffer of 50 mM orthophosphoric acid.

Another experiment addresses SmMLCK (Homo sapiens, UniProt Q15746). Kind of experiment: Kinase screen: smMLCK assay. The protocol:
as §1, §2
(500-1000 cpm/pmole) and incubated for 30 mins at room temperature. Assays were stopped by addition of 5 μl of 0.5M (3%) orthophosphoric acid. Assays were harvested onto P81 Unifilter plates using a wash buffer of 50 mM orthophosphoric acid.

The next experiment has as its target MNK2 (Homo sapiens, UniProt Q9HBH9). Kind of experiment: Kinase screen: MNK2 alpha assay. Here is the method:
as §1, §2
MNK2 alpha assay: 5-20 mU of MNK2 (diluted in 50 mM Tris (pH 7.5), 0.1 mM EGTA, 1 mg/ml BSA, 0.1%, b-Mercaptoethanol) was assayed against substrate peptide (eIF4E) in a final volume of 25.5 μl containing 50 mM Tris (pH 7.5), 0.1 mM EGTA, 0.1%, b-Mercaptoethanol, 0.5 mg/ml substrate peptide, 10 mM magnesium acetate and 0.05 mM [33P-g-ATP](500-1000 cpm/pmole) and incubated for 30 mins at room temperature. Assays were stopped by addition of 5 μl of 0.5M (3%) orthophosphoric acid. Assays were harvested onto P81 Unifilter plates using a wash buffer of 50 mM orthophosphoric acid.

Where [1] appears, read: 10 micromolar compound, read-out: mean activity remaining (as a percentage of the original activity), PKD1.
[2] abbreviates: 10 micromolar compound, read-out: mean activity remaining (as a percentage of the original activity), SmMLCK.
Where [3] appears, read: 10 micromolar compound, read-out: mean activity remaining (as a percentage of the original activity), MNK2.

Sequence of SmMLCK (Q15746 923-1914): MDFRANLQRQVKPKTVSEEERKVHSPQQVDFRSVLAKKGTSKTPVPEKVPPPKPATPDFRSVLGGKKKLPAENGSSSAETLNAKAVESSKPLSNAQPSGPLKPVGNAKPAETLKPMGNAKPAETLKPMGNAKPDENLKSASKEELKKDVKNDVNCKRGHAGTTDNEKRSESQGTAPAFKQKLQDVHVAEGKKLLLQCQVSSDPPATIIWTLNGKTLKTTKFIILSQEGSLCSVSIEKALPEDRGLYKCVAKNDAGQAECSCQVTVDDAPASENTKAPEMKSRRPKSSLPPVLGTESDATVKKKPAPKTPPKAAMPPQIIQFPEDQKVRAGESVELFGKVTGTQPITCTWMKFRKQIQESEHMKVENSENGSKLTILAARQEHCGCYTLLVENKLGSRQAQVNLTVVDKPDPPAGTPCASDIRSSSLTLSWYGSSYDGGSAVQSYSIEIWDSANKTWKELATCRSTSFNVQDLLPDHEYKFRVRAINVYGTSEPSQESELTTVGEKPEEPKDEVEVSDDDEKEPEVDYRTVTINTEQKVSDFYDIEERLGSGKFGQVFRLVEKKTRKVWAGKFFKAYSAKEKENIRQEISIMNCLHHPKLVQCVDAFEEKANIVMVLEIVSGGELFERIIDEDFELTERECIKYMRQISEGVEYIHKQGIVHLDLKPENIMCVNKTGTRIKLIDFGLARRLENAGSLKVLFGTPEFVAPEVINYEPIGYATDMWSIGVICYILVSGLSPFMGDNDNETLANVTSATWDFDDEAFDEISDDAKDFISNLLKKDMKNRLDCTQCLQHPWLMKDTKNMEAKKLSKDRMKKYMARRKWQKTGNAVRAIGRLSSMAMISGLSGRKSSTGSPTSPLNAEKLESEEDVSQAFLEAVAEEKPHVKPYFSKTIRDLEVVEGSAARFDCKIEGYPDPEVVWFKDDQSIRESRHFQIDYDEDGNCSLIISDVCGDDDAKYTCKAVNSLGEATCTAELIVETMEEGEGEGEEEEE
Sequence of MNK2 (Q9HBH9 whole entry, species assumed): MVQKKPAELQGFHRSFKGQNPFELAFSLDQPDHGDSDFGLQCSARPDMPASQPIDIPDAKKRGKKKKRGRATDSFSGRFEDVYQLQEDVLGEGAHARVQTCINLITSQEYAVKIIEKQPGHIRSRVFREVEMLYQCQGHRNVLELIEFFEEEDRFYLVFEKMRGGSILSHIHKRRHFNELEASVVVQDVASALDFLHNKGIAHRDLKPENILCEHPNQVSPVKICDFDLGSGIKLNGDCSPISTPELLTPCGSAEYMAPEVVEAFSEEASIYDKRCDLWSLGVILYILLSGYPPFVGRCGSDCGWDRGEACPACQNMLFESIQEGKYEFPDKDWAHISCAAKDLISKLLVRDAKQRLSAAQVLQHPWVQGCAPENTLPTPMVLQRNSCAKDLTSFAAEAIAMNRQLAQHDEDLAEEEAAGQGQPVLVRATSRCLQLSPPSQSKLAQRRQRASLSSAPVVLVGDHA

One may read the remaining activity as the signal under treatment as a percentage of the control signal. Consider `CC[C@H](CO)Nc1cc(NCc2ccccc2)n2ncc(C(C)C)c2n1` [ICEC0067], for which the remaining activity at 10 µM is 87% at PKD1 (setting [1]), 81% at SmMLCK (setting [2]) and 84% on MNK2 (setting [3]). The “mean activity remaining (as a percentage of the original activity), AMPK” value with AMPK was determined as 84%. Besides, the “mean activity remaining (as a percentage of the original activity), PHK” value with PHK worked out at 68%.
Consider `C=C[C@H](CO)Nc1cc(NCc2ccccc2)n2ncc(C(C)C)c2n1` [ICEC0065], for which the remaining activity at 10 µM at PKD1 (setting [1]) worked out at 88%; at SmMLCK (setting [2]) it was 92%; at MNK2 (setting [3]), 83%. For the same compound, the “mean activity remaining (as a percentage of the original activity), AMPK” value with AMPK worked out at 85%. The “mean activity remaining (as a percentage of the original activity), PHK” value with PHK came to 68%.
Turning to `CC(C)c1cnn2c(NCc3ccccc3)cc(N[C@@H](CO)[C@H](O)CO)nc12` [ICEC0318, (3S)-3-(7-(Benzylamino)-3-isopropylpyrazolo[1,5-a]pyrimidin-5-ylamino)butane-1,2,4-triol], the remaining activity at 10 µM at PKD1 (setting [1]) came out at 97%; at SmMLCK (setting [2]), 101%; at MNK2 (setting [3]) it was 136%. Further, the “mean activity remaining (as a percentage of the original activity), AMPK” value in the experiment with AMPK is on record as 88%. Further, the “mean activity remaining (as a percentage of the original activity), PHK” value with PHK was 62%.
Regarding `CC(C)c1cnn2c(NCc3ccccc3F)cc(NCCCCCN)nc12` [ICEC-0232], the “mean activity remaining (as a percentage of the original activity), PKD1” value on PKD1 (10 micromolar compound) was determined as 32%. Besides, the “mean activity remaining (as a percentage of the original activity), AMPK” value with AMPK is 75%. Besides, the “mean activity remaining (as a percentage of the original activity), PHK” value with PHK worked out at 10%. The “mean activity remaining (as a percentage of the original activity), SmMLCK” value on SmMLCK (10 micromolar compound) is 38%. For the same compound, the “mean activity remaining (as a percentage of the original activity), MNK2” value at MNK2 (10 micromolar compound) was 88%.
Consider `CC(C)c1cnn2c(NCc3ccccc3)cc(NCCCCCCCN)nc12` [BS-181], for which the remaining activity at 10 µM at PKD1 (PKD1, 10 μM, read-out: Mean Remaining Enzyme Activity (%)) was 53%; at SmMLCK (SmMLCK, 10 μM, read-out: Mean Remaining Enzyme Activity (%)), 35%; at MNK2 (MNK2, 10 μM, read-out: Mean Remaining Enzyme Activity (%)), 105%. Further, the “Mean Remaining Enzyme Activity (%)” value with AMPK (AMPK, 10 μM) is recorded as 122%; in the experiment with PHK (PHK, 10 μM), 49%.
